Test system: Primary human dermal papilla cells
Assay: Synergy study: survival of metabolically stressed dermal papilla cells (ATP, Cell Titer Glo)
Format: cell-based
Conditions: 0.05%, 48 hours metabolic stress in reduced media, control 100% water
Experimental: The dermal papilla, in normal human hair, is the control center for hair diameter. Increasing survival of dermal papilla cells in situ leads to increased hair diameter. Accordingly, an increase in survival of dermal papilla cells correlates with an increase in hair diameter.
Primary human dermal papilla cells were metabolically stressed for 48 hours in reduced standard tissue culture media. During this period of stress the cells were treated with the mixtures or individual ingredients below. After 48 hr the metabolic activity of the cells was measured by the amount of ATP using the Cell Titer Glo™ kit (Promega).

Cn1c(=O)c2c(ncn2C)n(C)c1=O [Caffeine]
Survival rate: % Change from Control: +41%
